Assays:
[1] = values stated in description, no method given; cited from earlier work
[2] = Hydrolysis of aspirin in choline chloride/urea deep eutectic solvent, determined using HPLC; type: physicochemical
Experimental: In this example, an aspirin formulation was prepared using choline chloride and urea. In this example, choline chloride was heated in an oven at 65° C. for 10 hours. Then, 1 part choline chloride (by volume) was added to 2 parts urea in a beaker. The beaker was sealed with parafilm and the choline chloride and urea allowed to mix to form a deep eutectic solvent (DES). Next, the mixture was passed through a 4A 8-12 mesh molecular sieve, and stirred overnight, to form anhydrous DES.
50 mg/ml of aspirin was then added to the DES. […] The hydrolysis was determined using HPLC.
It is believed that heating the choline chloride removes water.

SMILES	pKa [1]	aspirin found to have hydrolyzed ([2]; 50 mg/ml aspirin in anhydrous DES (1 part choline chloride : 2 parts urea by volume), choline chloride heated at 65° C. for 10 hours, molecular sieve, HPLC) [%]	aspirin found to hydrolyze ([2]; comparison: choline chloride and urea mixed without heating the choline chloride, same procedure otherwise)
CN(C)CCc1c[nH]c2ccc(CS(=O)(=O)N3CCCC3)cc12 [almotriptan]	8.77		
CC(=O)Oc1ccccc1C(=O)O [aspirin, acetylsalicylic acid]		1	over 8%
CN[C@@H]1CCc2[nH]c3ccc(C(N)=O)cc3c2C1 [frovatriptan]	17.27		

From patent publication US20210299044A1, “SYSTEMS AND METHODS FOR DELIVERY OF DRUGS AND OTHER SUBSTANCES COMPRISING DEEP EUTECTIC SOLVENTS” (Novilla Pharmaceuticals, Inc., priority 2018, published 2021)
